IC50 data for 40 compounds are collected here from patent US8153791B2, “Substituted pyrimidinyl oxime kinase inhibitors” (Janssen Pharmaceutica N.V., priority 2005, dated 2012).

The structures appear in SMILES notation.

One test has as its target T1, HER-2 (Homo sapiens, UniProt P04626).
T1 construct: purchased Proqinase (Freiburg, Germany)
Put plainly: HER-2 Kinase Assay.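 Also: HER2 kinase reaction read by scintillation counting, inhibition scaled between maximum and minimum signals set on each plate, IC50 from inhibition against log concentration.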 The note with it: read-out: HER2 IC50. The format is biochemical.

In the next test the target is T2, EGFR (Homo sapiens, UniProt P00533).
T2 construct: The intracellular portion of EGFR started at nucleotide 2189 (corresponding to amino acid 667) and ended at the termination codon; made in house; host or cells: Sf9 insect cells (baculovirus)
The experiment in a line: EGFR Kinase Assay.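 Also: recombinant GST-tagged EGFR expressed in Sf9 cells, phosphorylating biotinylated polyGluTyr with γ-33P ATP on Streptavidin Flashplates, 1 h at 30 °C, scintillation counting, inhibition relative to plate maximum and minimum signals.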 It is filed as biochemical.

T2 sequence (P00533 669-1210 limits assumed): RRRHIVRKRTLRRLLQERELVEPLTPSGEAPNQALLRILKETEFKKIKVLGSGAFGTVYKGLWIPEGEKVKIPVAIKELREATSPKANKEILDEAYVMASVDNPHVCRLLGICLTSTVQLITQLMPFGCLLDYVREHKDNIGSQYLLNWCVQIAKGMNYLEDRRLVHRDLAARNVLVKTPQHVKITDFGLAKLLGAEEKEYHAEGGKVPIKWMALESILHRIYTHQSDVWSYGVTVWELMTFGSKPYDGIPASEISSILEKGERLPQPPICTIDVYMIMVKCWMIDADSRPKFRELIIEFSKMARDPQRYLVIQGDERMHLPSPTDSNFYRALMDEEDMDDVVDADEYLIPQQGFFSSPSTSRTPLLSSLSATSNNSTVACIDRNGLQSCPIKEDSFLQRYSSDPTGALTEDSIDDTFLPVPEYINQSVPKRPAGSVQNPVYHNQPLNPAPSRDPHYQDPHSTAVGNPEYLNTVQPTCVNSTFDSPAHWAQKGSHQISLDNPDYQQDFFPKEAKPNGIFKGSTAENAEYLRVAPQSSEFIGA
T1 sequence (P04626 679-1255): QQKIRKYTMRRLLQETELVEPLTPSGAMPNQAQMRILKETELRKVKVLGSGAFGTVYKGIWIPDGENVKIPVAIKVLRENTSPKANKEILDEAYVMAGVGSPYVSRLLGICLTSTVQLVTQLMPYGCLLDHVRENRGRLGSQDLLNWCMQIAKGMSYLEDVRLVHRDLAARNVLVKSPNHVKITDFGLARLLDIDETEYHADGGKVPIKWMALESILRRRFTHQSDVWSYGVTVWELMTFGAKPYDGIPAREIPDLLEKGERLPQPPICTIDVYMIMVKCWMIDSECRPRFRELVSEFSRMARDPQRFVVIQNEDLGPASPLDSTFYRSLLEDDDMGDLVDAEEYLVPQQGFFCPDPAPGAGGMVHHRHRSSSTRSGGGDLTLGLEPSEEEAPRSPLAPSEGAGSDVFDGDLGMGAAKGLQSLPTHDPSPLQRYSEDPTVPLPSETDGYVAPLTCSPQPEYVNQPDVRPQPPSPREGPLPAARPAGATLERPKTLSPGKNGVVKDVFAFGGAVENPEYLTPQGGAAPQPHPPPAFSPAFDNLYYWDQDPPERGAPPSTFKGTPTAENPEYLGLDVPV

What is called IC50 is the point on the concentration scale where inhibition reaches its midpoint. With `CO/N=C/c1c(N)ncnc1Nc1ccc2nn(Cc3cccc(F)c3)cc2c1` [Cpd 5], the IC50 on HER-2 turned out to be 3700 nM; on EGFR, 500 nM.
Regarding `Nc1ncnc(Nc2ccc3c(cnn3Cc3cccc(F)c3)c2)c1/C=N/OCC(=O)N1CCOCC1` [Cpd 6, (5E)-4-amino-6-[1-(3-fluoro-benzyl)-1H-indazol-5-ylamino]-pyrimidine-5-carbaldehyde O-(2-morpholin-4-yl-2-oxo-ethyl)-oxime], the IC50 at HER-2 was found to be 100 nM.
For `CO/N=C/c1c(N)ncnc1Nc1ccc(Oc2ccccc2)c(OC)c1` [Cpd 7, (5E)-4-amino-6-(3-methoxy-4-phenoxy-phenylamino)-pyrimidine-5-carbaldehyde O-methyl-oxime], the IC50 on HER-2 stood at 100 nM; on EGFR, 50 nM.
For `COc1cc(Nc2ncnc(N)c2/C=N/OCC(=O)N2CCOCC2)ccc1Oc1ccccc1` [Cpd 8, (5E)-4-amino-6-(3-methoxy-4-phenoxy-phenylamino)-pyrimidine-5-carbaldehyde O-(2-morpholin-4-yl-2-oxo-ethyl)-oxime], at HER-2, the IC50 stood at 700 nM.
`C=CCO/N=C/c1c(N)ncnc1Nc1ccc2c(cnn2Cc2cccc(F)c2)c1` [Cpd 11, (5E)-4-amino-6-[1-(3-fluoro-benzyl)-1H-indazol-5-ylamino]-pyrimidine-5-carbaldehyde O-allyl-oxime]: the figures for the IC50 at HER-2 and against EGFR were 10 nM and 8 nM, respectively.
Taken in the same sequence, the figures for `CC(C)(C)O/N=C/c1c(N)ncnc1Nc1ccc2c(cnn2Cc2cccc(F)c2)c1` [Cpd 12, (5E)-4-amino-6-[1-(3-fluoro-benzyl)-1H-indazol-5-ylamino]-pyrimidine-5-carbaldehyde O-tert-butyl-oxime] were 50 nM and 40 nM.
Regarding `CO/N=C/c1c(N)ncnc1Nc1ccc(Oc2cccnc2)c(C)c1` [Cpd 13, (5E)-4-amino-6-[3-methyl-4-(pyridin-3-yloxy)-phenylamino]-pyrimidine-5-carbaldehyde O-methyl-oxime], the IC50 came to 100 nM on HER-2 and 200 nM at EGFR.
The matching figures for `CCO/N=C/c1c(N)ncnc1N[C@H](C)c1ccccc1` [Cpd 14]: 3100 nM and 100 nM.
With `CCO/N=C/c1c(N)ncnc1N[C@@H](C)c1ccccc1` [Cpd 16, (5E)-4-amino-6-[(1S)-1-phenyl-ethylamino]-pyrimidine-5-carbaldehyde O-ethyl-oxime], the IC50 on HER-2 and against EGFR was 10 nM each time.
`CCO/N=C/c1c(N)ncnc1Nc1ccc2[nH]ccc2c1` [Cpd 17, (5E)-4-amino-6-(1H-indol-5-ylamino)-pyrimidine-5-carbaldehyde O-ethyl-oxime]: the IC50 stood at 600 nM at HER-2 and 20 nM at EGFR.
As to `CCO/N=C/c1c(N)ncnc1Nc1ccc(OCc2cccc(F)c2)c(Cl)c1` [Cpd 18, (5E)-4-amino-6-[3-chloro-4-(3-fluoro-benzyloxy)-phenylamino)-pyrimidine-5-carbaldehyde O-ethyl-oxime], the IC50 is 40 nM at HER-2 and 30 nM against EGFR.
The matching figures for `CO/N=C/c1c(N)ncnc1Nc1ccc2c(c1)CCC2` [Cpd 20]: 14100 nM and 1200 nM.
On to `CO/N=C/c1c(N)ncnc1Nc1ccc(OC(F)F)cc1` [Cpd 21], for which the values for the IC50 at HER-2 and at EGFR were 5300 nM and 1500 nM, respectively.
Take `CO/N=C/c1c(N)ncnc1Nc1ccc2c(c1)OCO2` [Cpd 23]: the values for the IC50 at HER-2 and against EGFR were 28500 nM and 1900 nM, respectively.
On to `CO/N=C/c1c(N)ncnc1Nc1ccc(Oc2ccccc2)cc1` [Cpd 24, (5E)-4-amino-6-(4-phenoxy-phenylamino)-pyrimidine-5-carbaldehyde O-methyl-oxime], for which the results for the IC50 on HER-2 and against EGFR were 200 nM and 90 nM, respectively.
Take `CO/N=C/c1c(N)ncnc1Nc1ccc(OCc2ccccc2)cc1` [Cpd 25, (5E)-4-amino-6-(4-benzyloxy-phenylamino)-pyrimidine-5-carbaldehyde O-methyl-oxime]: the IC50 on HER-2 came out at 300 nM; at EGFR, 30 nM.
On to `CO/N=C/c1c(N)ncnc1Nc1cccc(OCc2ccccc2)c1` [Cpd 28], for which the IC50 on HER-2 is 5500 nM; against EGFR, 900 nM.
For `CO/N=C/c1c(N)ncnc1Nc1ccc(Oc2ccc(C)nc2)c(C)c1` [Cpd 29, (5E)-4-amino-6-[3-methyl-4-(6-methyl-pyridin-3-yloxy)-phenylamino]-pyrimidine-5-carbaldehyde O-methyl-oxime], the IC50 on HER-2 and on EGFR was 200 nM throughout.
As to `Nc1ncnc(Nc2ccc3c(cnn3Cc3cccc(F)c3)c2)c1/C=N/OCCOc1ccccc1` [Cpd 31, (5E)-4-amino-6-[1-(3-fluoro-benzyl)-1H-indazol-5-ylamino]-pyrimidine-5-carbaldehyde O-(2-phenoxy-ethyl)-oxime], the IC50 worked out at 300 nM on HER-2 and 20 nM at EGFR.
Taken in the same sequence, the figures for `CO/N=C/c1c(N)ncnc1Nc1ccc(OCc2ccccn2)c(Cl)c1` [Cpd 32, (5E)-4-amino-6-[3-chloro-4-(pyridin-2-ylmethoxy)-phenylamino]-pyrimidine-5-carbaldehyde O-methyl-oxime] were 90 nM and 10 nM.
Taken in the same sequence, the figures for `CCO/N=C/c1c(N)ncnc1Nc1ccc2c(ccn2Cc2cccc(F)c2)c1` [Cpd 33, (5E)-4-amino-6-[1-(3-fluoro-benzyl)-1H-indol-5-ylamino]-pyrimidine-5-carbaldehyde O-ethyl-oxime] were 100 nM and 20 nM.
Taken in the same sequence, the figures for `CCO/N=C/c1c(N)ncnc1Nc1ccc(OCc2ccccc2)c(Cl)c1` [Cpd 37, (5E)-4-amino-6-(4-benzyloxy-3-chloro-phenylamino)-pyrimidine-5-carbaldehyde O-ethyl-oxime] were 90 nM and 20 nM.
As for `CO/N=C/c1c(N)ncnc1Nc1ccc(Oc2cccnc2)c(Cl)c1` [Cpd 38, (5E)-4-amino-6-[3-chloro-4-(pyridin-3-yloxy)-phenylamino]-pyrimidine-5-carbaldehyde O-methyl-oxime], the IC50 on HER-2 was 50 nM; against EGFR, 100 nM.
Regarding `CNc1ncnc(Nc2ccc(OCc3cccc(F)c3)c(Cl)c2)c1C=NOC` [Cpd 39, 4-[3-Chloro-4-(3-fluoro-benzyloxy)-phenylamino]-6-methylamino-pyrimidine-5-carbaldehyde O-methyl-oxime], the IC50 at HER-2 came out at 14800 nM.
Take `CCNc1ncnc(Nc2ccc3c(cnn3Cc3cccc(F)c3)c2)c1/C=N/OC` [Cpd 40, (5E)-4-ethylamino-6-[1-(3-fluoro-benzyl)-1H-indazol-5-ylamino]-pyrimidine-5-carbaldehyde O-methyl-oxime]: at HER-2, the IC50 is 10600 nM.
On to `CCNc1ncnc(Nc2ccc3c(cnn3Cc3cccc(F)c3)c2)c1/C=N/OCC` [Cpd 41, (5E)-4-ethylamino-6-[1-(3-fluoro-benzyl)-1H-indazol-5-ylamino]-pyrimidine-5-carbaldehyde O-ethyl-oxime], for which the IC50 amounted to 3600 nM at HER-2 and 400 nM on EGFR.
At EGFR, `CCNc1ncnc(Nc2ccc(OCc3cccc(F)c3)c(Cl)c2)c1/C=N/OC` [Cpd 42, (5E)-4-[3-chloro-4-(3-fluoro-benzyloxy)-phenylamino]-6-ethylamino-pyrimidine-5-carbaldehyde O-methyl-oxime] showed an IC50 of 7800 nM.
As to `CCNc1ncnc(Nc2ccc(OCc3cccc(F)c3)c(Cl)c2)c1/C=N/OCC` [Cpd 43, (5E)-4-[3-chloro-4-(3-fluoro-benzyloxy)-phenylamino]-6-ethylamino-pyrimidine-5-carbaldehyde O-ethyl-oxime], the IC50 on HER-2 is 10400 nM; against EGFR, 1400 nM.
Regarding `COc1ccc(CO/N=C/c2c(N)ncnc2Nc2ccc3c(cnn3Cc3cccc(F)c3)c2)cc1` [Cpd 44, (5E)-4-amino-6-[1-(3-fluoro-benzyl)-1H-indazol-5-ylamino]-pyrimidine-5-carbaldehyde O-(4-methoxy-benzyl)-oxime], the IC50 was 1600 nM at HER-2 and 70 nM against EGFR.
For `CCO/N=C/c1c(N)ncnc1Nc1ccc2c(cnn2Cc2ccccc2)c1` [Cpd 49, (5E)-4-amino-6-(1-benzyl-1H-indazol-5-ylamino)-pyrimidine-5-carbaldehyde O-ethyl-oxime], the IC50 was found to be 10 nM at HER-2 and 30 nM on EGFR.
Taken in the same sequence, the figures for `CCO/N=C/c1c(N)ncnc1Nc1ccc2c(cnn2Cc2cccc(C#N)c2)c1` [Cpd 51, 3-{5-[6-amino-(5E)-5-(ethoxyimino-methyl)-pyrimidin-4-ylamino]-indazol-1-ylmethyl}-benzonitrile] were 40 nM and 40 nM.
Consider `CCO/N=C/c1c(N)ncnc1Nc1ccc2nn(Cc3ccccc3)cc2c1` [Cpd 52], for which, on HER-2, the IC50 is 4500 nM.
On EGFR, `CCO/N=C/c1c(N)ncnc1Nc1ccc2c(cnn2Cc2cccc(OC)c2)c1` [Cpd 57] registered an IC50 of 200 nM.
Still for that read-out and setting: to `CCO/N=C/c1c(N)ncnc1Nc1ccc2[nH]c(Cc3cccc(F)c3)nc2c1` [Cpd 58, (5E)-4-amino-6-[2-(3-fluoro-benzyl)-1H-benzoimidazol-5-ylamino]-pyrimidine-5-carbaldehyde O-ethyl-oxime] belongs 30 nM; to `CO/N=C/c1c(N)ncnc1Nc1cccc(Cl)c1` [Cpd 59, (5E)-4-amino-6-(3-chloro-phenylamino)-pyrimidine-5-carbaldehyde O-methyl-oxime], 50 nM; to `CO/N=C/c1c(N)ncnc1Nc1ccc(OCc2cccc(F)c2)c(OC)c1` [Cpd 61], 200 nM.
Compound `CCO/N=C/c1c(N)ncnc1Nc1ccc(OCc2cccc(F)c2)c(OC)c1` [Cpd 62] showed an IC50 against EGFR of 200 nM.
`CO/N=C/c1c(N)ncnc1Nc1ccc2oc(Cc3ccccc3)cc2c1` [Cpd 73]: on HER-2, the IC50 amounted to 2900 nM.
On to `Nc1ncnc(NCc2ccc3c(c2)OCO3)c1C=NCc1ccc2c(c1)OCO2` [Cpd 119, N-benzo[1,3]dioxol-5-ylmethyl-5-[(benzo[1,3]dioxol-5-ylmethylimino)-methyl]-pyrimidine-4,6-diamine], for which the IC50 on HER-2 is over 10000 nM.
On the same count and under the same terms, as for `CON=Cc1c(N)ncnc1NCc1ccc2c(c1)OCO2` [Cpd 121, 4-amino-6-[(benzo[1,3]dioxol-5-ylmethyl)-amino]-pyrimidine-5-carbaldehyde O-methyl-oxime], the figure is over 10000 nM.
